Where a name gives a salt, the structure may show the parent alone.

Test [1] deals with Phosphorylated Ribosomal Protein S6 (RPS6) in THP-1 cells. As to the kind of experiment: THP-1 RPS6 ELISA Assay. The test is classed as cell-based. Conditions: Homo sapiens; serum starved THP-1 cells, 2 hours with compound, 10 nM MCP-1 for 15 minutes, Phospho-RPS6 ELISA; read-out: PI3Kγ_THP1_RPS6_ELISA IC50. The method, boiled down: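 Phospho-RPS6 in lysates measured by ELISA at 450 nm, corrected at 540 nm, after MCP-1 challenge (10 nM, 15 min) of THP-1 cells that were starved overnight and exposed to test compound for 2 h at 37° C, 2×10^5 cells/well. Curve fit of percent inhibition gives IC50.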

Test [2] has as its target PI3Kδ (p110δ/p85α) Recombinant Human Protein (Homo sapiens (Human), UniProt O00329). The experiment in a line: PI3Kδ Scintillation Proximity Assay. Format: biochemical. Conditions: 20 μM PIP2, 2 μM ATP, 3.4 nM PI3Kδ, 120 min, room temperature. In outline:
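Assay conditions: 2 μM ATP (radiolabelled), 20 μM PIP2, 3.4 nM PI3Kδ, 20 mM MOPS pH 6.7 with 10 mM MgCl2, 5 mM DTT, 0.03% CHAPS, 2 h at room temperature. Signal from bead-captured 33P product; IC50 versus solvent control.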
(In general: SPA uses beads or plates that emit light when radiolabelled molecules are held near them.)

The target in test [3] is PI3Kγ (p110γ) Recombinant Human Protein (Homo sapiens (Human), UniProt P48736). As to the kind of experiment: PI3K-γ Scintillation Proximity Assay. Conditions: 20 μM PIP2, 2 μM ATP, 13 nM PI3Kγ, 120 min, room temperature. The test is classed as biochemical. In outline:
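Recombinant human p110γ (13 nM) phosphorylated 20 μM PIP2 with 2 μM ATP plus [γ-33P]ATP in 20 mM MOPS pH 6.7, 10 mM MgCl2, 5 mM DTT, 0.03% CHAPS, 2% DMSO, 120 min at room temperature. Radiolabelled product was captured on WGA SPA beads and counted. IC50 came from curves of percent solvent-control activity.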

Sequence of PI3Kγ (p110γ) Recombinant Human Protein (P48736 whole entry): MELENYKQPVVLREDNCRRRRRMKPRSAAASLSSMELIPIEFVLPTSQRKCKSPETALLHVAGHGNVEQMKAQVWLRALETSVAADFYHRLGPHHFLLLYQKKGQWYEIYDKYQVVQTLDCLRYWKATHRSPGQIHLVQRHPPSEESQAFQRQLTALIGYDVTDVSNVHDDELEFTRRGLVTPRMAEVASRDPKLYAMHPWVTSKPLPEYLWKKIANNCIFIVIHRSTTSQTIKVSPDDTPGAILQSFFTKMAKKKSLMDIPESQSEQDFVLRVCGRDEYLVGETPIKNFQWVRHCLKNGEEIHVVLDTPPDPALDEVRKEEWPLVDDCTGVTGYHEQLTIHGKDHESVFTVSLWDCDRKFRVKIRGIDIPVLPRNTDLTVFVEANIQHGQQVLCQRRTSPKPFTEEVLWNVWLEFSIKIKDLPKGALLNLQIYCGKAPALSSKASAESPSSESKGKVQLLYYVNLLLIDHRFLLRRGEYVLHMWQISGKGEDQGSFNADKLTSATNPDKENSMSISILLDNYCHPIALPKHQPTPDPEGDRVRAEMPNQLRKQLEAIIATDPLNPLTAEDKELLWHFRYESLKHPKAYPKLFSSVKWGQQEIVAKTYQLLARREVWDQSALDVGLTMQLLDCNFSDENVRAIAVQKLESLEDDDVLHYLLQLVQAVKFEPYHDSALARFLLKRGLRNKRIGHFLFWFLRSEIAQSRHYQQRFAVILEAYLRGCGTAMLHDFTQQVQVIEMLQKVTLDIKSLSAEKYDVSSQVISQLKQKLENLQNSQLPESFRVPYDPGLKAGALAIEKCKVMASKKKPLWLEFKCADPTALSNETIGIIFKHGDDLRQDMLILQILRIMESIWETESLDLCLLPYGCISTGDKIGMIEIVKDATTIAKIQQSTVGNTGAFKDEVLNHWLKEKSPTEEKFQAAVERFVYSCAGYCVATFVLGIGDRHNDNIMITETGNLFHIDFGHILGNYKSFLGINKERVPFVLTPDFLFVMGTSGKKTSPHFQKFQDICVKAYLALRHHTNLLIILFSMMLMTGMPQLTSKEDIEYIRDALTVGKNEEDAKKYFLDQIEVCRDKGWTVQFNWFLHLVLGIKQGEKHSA
Sequence of PI3Kδ (p110δ/p85α) Recombinant Human Protein (O00329 whole entry): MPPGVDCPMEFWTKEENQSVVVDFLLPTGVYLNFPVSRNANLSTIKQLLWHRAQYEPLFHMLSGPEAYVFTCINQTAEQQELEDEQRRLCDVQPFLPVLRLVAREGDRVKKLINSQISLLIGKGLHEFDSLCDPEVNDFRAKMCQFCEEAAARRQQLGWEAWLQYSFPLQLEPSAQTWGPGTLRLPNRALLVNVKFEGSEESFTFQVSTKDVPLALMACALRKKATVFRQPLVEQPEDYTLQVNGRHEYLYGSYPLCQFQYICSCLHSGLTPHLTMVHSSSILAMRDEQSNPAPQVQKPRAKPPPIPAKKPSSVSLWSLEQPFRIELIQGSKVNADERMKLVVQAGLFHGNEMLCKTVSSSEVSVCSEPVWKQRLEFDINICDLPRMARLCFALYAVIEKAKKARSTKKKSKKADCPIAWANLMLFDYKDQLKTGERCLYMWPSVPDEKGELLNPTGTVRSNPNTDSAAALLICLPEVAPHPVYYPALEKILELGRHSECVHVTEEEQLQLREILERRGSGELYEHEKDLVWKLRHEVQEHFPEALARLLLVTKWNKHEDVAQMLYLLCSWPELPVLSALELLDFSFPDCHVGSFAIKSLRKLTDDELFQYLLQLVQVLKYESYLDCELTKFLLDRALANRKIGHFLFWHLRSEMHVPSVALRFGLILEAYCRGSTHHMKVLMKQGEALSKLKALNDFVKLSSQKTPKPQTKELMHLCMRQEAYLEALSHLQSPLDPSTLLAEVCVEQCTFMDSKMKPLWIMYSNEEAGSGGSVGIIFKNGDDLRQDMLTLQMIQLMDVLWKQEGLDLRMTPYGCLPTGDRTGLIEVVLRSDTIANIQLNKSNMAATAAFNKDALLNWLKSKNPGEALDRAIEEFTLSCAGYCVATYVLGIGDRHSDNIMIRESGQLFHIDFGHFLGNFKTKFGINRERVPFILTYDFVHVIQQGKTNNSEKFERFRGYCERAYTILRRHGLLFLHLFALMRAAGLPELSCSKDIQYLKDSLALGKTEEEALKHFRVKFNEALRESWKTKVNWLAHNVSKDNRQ
Sequence of PI3Kδ (p110δ/p85α) Recombinant Human Protein (P27986 whole entry partner): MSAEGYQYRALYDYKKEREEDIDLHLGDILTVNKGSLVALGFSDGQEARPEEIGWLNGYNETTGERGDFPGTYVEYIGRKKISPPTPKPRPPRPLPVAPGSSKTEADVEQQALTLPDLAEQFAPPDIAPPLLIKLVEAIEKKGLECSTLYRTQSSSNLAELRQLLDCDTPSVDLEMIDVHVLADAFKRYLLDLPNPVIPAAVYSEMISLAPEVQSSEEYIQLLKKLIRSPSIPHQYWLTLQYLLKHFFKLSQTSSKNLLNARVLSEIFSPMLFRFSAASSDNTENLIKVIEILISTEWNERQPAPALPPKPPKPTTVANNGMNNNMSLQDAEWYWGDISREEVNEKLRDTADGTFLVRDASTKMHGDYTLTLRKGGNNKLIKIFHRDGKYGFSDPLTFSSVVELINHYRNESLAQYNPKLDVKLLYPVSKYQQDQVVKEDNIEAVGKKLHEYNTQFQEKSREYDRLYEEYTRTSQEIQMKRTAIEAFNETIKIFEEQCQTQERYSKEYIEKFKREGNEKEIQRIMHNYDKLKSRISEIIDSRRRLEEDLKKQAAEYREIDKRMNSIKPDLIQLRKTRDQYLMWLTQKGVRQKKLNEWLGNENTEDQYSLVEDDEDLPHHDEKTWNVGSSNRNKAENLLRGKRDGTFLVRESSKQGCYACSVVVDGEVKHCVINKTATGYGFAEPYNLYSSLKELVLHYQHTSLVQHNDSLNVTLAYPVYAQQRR

With `[2H]C([2H])([2H])c1ccc(S(=O)(=O)NC23CC(C#N)(C2)C3)cc1-c1cnc(N)c(-n2cncn2)n1` [Example 48, 3-(5-Amino-6-(1H-1,2,4-triazol-1-yl)pyrazin-2-yl)-N-(3-cyanobicyclo[1.1.1]pentan-1-yl)-4-(methyl-d3)benzenesulfonamide Trifluoroacetate Salt], the IC50 in test [1] is no more than 100 nM; in test [2] it was no more than 500 nM; in test [3] it was no more than 100 nM.
As to `CCOC(=O)NC12CC(NS(=O)(=O)c3ccc(C)c(-c4cnc(N)c(-n5cncn5)n4)c3)(C1)C2` [Example 39, Ethyl 3-(3-(5-amino-6-(1H-1,2,4-triazol-1-yl)pyrazin-2-yl)-4-methylphenylsulfonamido)bicyclo[1.1.1]pentan-1-ylcarbamate Trifluoroacetate Salt], the IC50 was no more than 500 nM in test [1], no more than 500 nM in test [2] and no more than 100 nM in test [3].
Take `Cc1ccc(S(=O)(=O)NC23COC(CO)(C2)C3)cc1-c1cnc(N)c(-c2cnc(C3CC3)s2)c1` [Example 89, 3-(6-amino-5-(2-cyclopropylthiazol-5-yl)pyridin-3-yl)-N-(1-(hydroxymethyl)-2-oxabicyclo[2.1.1]hexan-4-yl)-4-methylbenzenesulfonamide]: the IC50 was no more than 100 nM in test [1], no more than 500 nM in test [2] and no more than 100 nM in test [3].
Consider `Cc1ncc(-c2nc(-c3cc(S(=O)(=O)NC45COC(CO)(C4)C5)cc(F)c3C)cnc2N)s1` [Example 9, 3-(5-Amino-6-(2-methylthiazol-5-yl)pyrazin-2-yl)-5-fluoro-N-(1-(hydroxymethyl)-2-oxabicyclo[2.1.1]hexan-4-yl)-4-methylbenzenesulfonamide trifluoroacetate Salt], for which the IC50 in test [1], in test [2] and in test [3] was no more than 100 nM throughout.
For the molecule `Cc1ccc(S(=O)(=O)NC23CCC(C#N)(C2)C3)cc1-c1cnc(N)c(-n2nccn2)n1` [Example 42, 3-(5-Amino-6-(2H-1,2,3-triazol-2-yl)pyrazin-2-yl)-N-(4-cyanobicyclo[2.1.1]hexan-1-yl)-4-methylbenzenesulfonamide Trifluoroacetate Salt], the IC50 was no more than 100 nM in test [1], no more than 500 nM in test [2] and no more than 100 nM in test [3].
`[2H]C([2H])([2H])c1ccc(S(=O)(=O)NC23CCC(C#N)(C2)C3)cc1-c1cnc(N)c(-c2cnc(C)o2)n1` [Example 66, 3-(5-Amino-6-(2-methyloxazol-5-yl)pyrazin-2-yl)-N-(4-cyanobicyclo[2.1.1]hexan-1-yl)-4-(methyl-d3)benzenesulfonamide trifluoroacetate salt]: the IC50 in test [1], in test [2] and in test [3] was no more than 100 nM in each case.
For `Cc1ccc(S(=O)(=O)NC23CCC(CO)(CC2)OC3)cc1-c1cnc(N)c(-c2ccnc(C#N)c2)n1` [Example 19, 3-(5-Amino-6-(2-cyanopyridin-4-yl)pyrazin-2-yl)-N-(1-(hydroxymethyl)-2-oxabicyclo[2.2.2]octan-4-yl)-4-methylbenzenesulfonamide trifluoroacetate salt], the IC50 in test [1] was no more than 1000 nM; in test [2], no more than 100 nM; in test [3], no more than 100 nM.
Regarding `[2H]C([2H])([2H])c1ccc(S(=O)(=O)NC23CCC(C#N)(C2)C3)cc1-c1cnc(N)c(-c2cnc(C)s2)n1` [Example 65, 3-(5-Amino-6-(2-methylthiazol-5-yl)pyrazin-2-yl)-N-(4-cyanobicyclo[2.1.1]hexan-1-yl)-4-(methyl-d3)benzenesulfonamide trifluoroacetate salt], the IC50 in test [1], in test [2] and in test [3] was no more than 100 nM each time.
In the case of `[2H]C([2H])([2H])c1ccc(S(=O)(=O)NC23COC(CO)(C2)C3)cc1-c1cnc(N)c(-c2cnc(C3CC3)s2)n1` [Example 61, 3-(5-Amino-6-(2-cyclopropylthiazol-5-yl)pyrazin-2-yl)-N-(1-(hydroxymethyl)-2-oxabicyclo[2.1.1]hexan-4-yl)-4-(methyl-d3)benzenesulfonamide Trifluoroacetate Salt], the IC50 in test [1], in test [2] and in test [3] was no more than 100 nM in each case.
On to `Cc1ccc(S(=O)(=O)NC23CCC(CO)(C2)C3)cc1-c1cnc(N)c(-n2cncn2)n1` [Example 25, 3-(5-Amino-6-(1H-1,2,4-triazol-1-yl)pyrazin-2-yl)-N-(4-(hydroxymethyl)bicyclo[2.1.1]hexan-1-yl)-4-methylbenzenesulfonamide trifluoroacetate salt], for which the IC50 in test [1], in test [2] and in test [3] was no more than 100 nM throughout.
For `Cc1ccc(S(=O)(=O)NC23CCC(CO)(CC2)OC3)cc1-c1cnc(N)c(-c2ccncc2F)n1` [Example 20, 3-(5-Amino-6-(3-fluoropyridin-4-yl)pyrazin-2-yl)-N-(1-(hydroxymethyl)-2-oxabicyclo[2.2.2]octan-4-yl)-4-methylbenzenesulfonamide trifluoroacetate salt], the IC50 in test [1] was no more than 500 nM; in test [2] it was no more than 500 nM; in test [3], no more than 100 nM.
As to `[2H]C([2H])([2H])c1ccc(S(=O)(=O)NC23CC(CO)(C2)C3)cc1-c1cnc(N)c(-c2ccncn2)n1` [Example 81, 3-(5-Amino-6-(pyrimidin-4-yl)pyrazin-2-yl)-N-(3-(hydroxymethyl)bicyclo[1.1.1]pentan-1-yl)-4-(methyl-d3)benzenesulfonamide trifluoroacetate salt], the IC50 in test [1] is no more than 500 nM; in test [2] it was no more than 100 nM; in test [3], no more than 100 nM.
In the case of `[2H]C([2H])([2H])c1ccc(S(=O)(=O)NC23CC(CO)(C2)C3)cc1-c1cnc(N)c(-n2cncn2)n1` [Example 49, 3-(5-Amino-6-(1H-1,2,4-triazol-1-yl)pyrazin-2-yl)-N-(3-(hydroxymethyl)bicyclo[1.1.1]pentan-1-yl)-4-(methyl-d3)benzenesulfonamide Trifluoroacetate Salt], the IC50 was no more than 500 nM in test [1], no more than 100 nM in test [2] and no more than 100 nM in test [3].
Consider `[2H]C([2H])([2H])c1ccc(S(=O)(=O)NC23CCN(CC2)C3)cc1-c1cnc(N)c(-c2ncn(C([2H])([2H])[2H])n2)n1` [Example 92, 3-(5-amino-6-(1-(methyl-d3)-1H-1,2,4-triazol-3-yl)pyrazin-2-yl)-N-(1-azabicyclo[2.2.1]heptan-4-yl)-4-(methyl-d3)benzenesulfonamide], for which the IC50 was no more than 500 nM in test [1], no more than 100 nM in test [2] and no more than 100 nM in test [3].
Take `Cc1ccc(S(=O)(=O)NC23CNC(C2)C3)cc1-c1cnc(N)c(-n2ccnn2)n1` [Example 59, 3-(5-amino-6-(1H-1,2,3-triazol-1-yl)pyrazin-2-yl)-N-(2-azabicyclo[2.1.1]hexan-4-yl)-4-methylbenzenesulfonamide trifluoroacetate salt]: the IC50 in test [1] is no more than 1000 nM; in test [2], no more than 500 nM; in test [3], no more than 100 nM.
For `Cc1ccc(S(=O)(=O)NC23CCC(O)(CC2)C3)cc1-c1cnc(N)c(-n2cncn2)n1` [Example 26, 3-(5-Amino-6-(1H-1,2,4-triazol-1-yl)pyrazin-2-yl)-N-(4-hydroxybicyclo[2.2.1]heptan-1-yl)-4-methylbenzenesulfonamide trifluoroacetate salt], the IC50 in test [1], in test [2] and in test [3] was no more than 100 nM each time.
As to `[2H]C([2H])([2H])c1ccc(S(=O)(=O)NC23CCC(O)(C2)C3)cc1-c1cnc(N)c(-c2cnco2)n1` [Example 74, 3-(5-Amino-6-(oxazol-5-yl)pyrazin-2-yl)-N-(4-hydroxybicyclo[2.1.1]hexan-1-yl)-4-(methyl-d3)benzenesulfonamide trifluoroacetate salt], the IC50 was no more than 100 nM in test [1], no more than 500 nM in test [2] and no more than 100 nM in test [3].

For orientation: IC50 means the concentration that gives 50% inhibition.

The values are drawn from patent US11306079B2, “3-(5-amino-pyrazin-2-yl)-benzenesulfonamide derivatives and related compounds as PI3K-gamma kinase inhibitors” (Incyte Corporation, priority 2017, dated 2022).
